# Target: His-tagged CRBN-DDB1 complex (Homo sapiens, UniProt Q96SW2)
# Test: Time-Resolved Fluorescence Resonance Energy Transfer (TR-FRET / HTRF) CRBN binding assay, displacement of Cy5-labeled thalidomide
# Conditions: His-CRBN-DDB1, Cy5-thalidomide 8 nM, 1 hour room temperature
# Description: Time-Resolved Fluorescence Resonance Energy Transfer (TR-FRET) Assay.
# Equal volumes of His-tagged CRBN-DDB1 complex (56 nM) was mixed with Eu-cryptate labeled Anti-6HIS-monoclonal antibody (50× dilution from the commercial stock solution, Vender: Cisbio, Cat. #61HI2KLA) in a final buffer containing 20 mM HEPES pH 7.0, 150 mM NaCl, 0.005% Tween-20. […] The mixture were incubated at room temperature for 1 hour. FRET signals were measured on an EnVision plate reader (Perkin Elmer) by exciting at 340 nm and recording emission at both 615 nm as no FRET control and 665 nm as the FRET signals with a 60 microsecond delay. FRET efficiency was calculated as the ratio of fluorescent signals at […]. Quantitative loss of FRET efficiency as a function of compound concentrations was fitted by a four-parameter Logistic Function using GraphPad Prism 7.0 and the IC50 values were reported for each compound.
# The compound numbers correspond to the compound numbers in Table 1.
# His-tagged CRBN-DDB1 complex, sequence (Q96SW2 whole entry): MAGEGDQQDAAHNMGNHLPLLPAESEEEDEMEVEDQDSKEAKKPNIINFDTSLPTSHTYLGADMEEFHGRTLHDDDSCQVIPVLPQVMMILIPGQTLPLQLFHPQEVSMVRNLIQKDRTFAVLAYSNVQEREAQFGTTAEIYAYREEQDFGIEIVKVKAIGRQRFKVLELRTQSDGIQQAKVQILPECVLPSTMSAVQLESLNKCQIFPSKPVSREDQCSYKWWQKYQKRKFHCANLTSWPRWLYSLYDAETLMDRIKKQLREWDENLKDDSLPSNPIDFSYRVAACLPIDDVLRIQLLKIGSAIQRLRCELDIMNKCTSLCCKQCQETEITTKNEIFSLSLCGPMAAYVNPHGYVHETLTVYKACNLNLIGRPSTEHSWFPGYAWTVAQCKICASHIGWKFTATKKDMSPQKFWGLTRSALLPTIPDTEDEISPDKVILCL
# His-tagged CRBN-DDB1 complex, sequence (Q16531 whole entry partner): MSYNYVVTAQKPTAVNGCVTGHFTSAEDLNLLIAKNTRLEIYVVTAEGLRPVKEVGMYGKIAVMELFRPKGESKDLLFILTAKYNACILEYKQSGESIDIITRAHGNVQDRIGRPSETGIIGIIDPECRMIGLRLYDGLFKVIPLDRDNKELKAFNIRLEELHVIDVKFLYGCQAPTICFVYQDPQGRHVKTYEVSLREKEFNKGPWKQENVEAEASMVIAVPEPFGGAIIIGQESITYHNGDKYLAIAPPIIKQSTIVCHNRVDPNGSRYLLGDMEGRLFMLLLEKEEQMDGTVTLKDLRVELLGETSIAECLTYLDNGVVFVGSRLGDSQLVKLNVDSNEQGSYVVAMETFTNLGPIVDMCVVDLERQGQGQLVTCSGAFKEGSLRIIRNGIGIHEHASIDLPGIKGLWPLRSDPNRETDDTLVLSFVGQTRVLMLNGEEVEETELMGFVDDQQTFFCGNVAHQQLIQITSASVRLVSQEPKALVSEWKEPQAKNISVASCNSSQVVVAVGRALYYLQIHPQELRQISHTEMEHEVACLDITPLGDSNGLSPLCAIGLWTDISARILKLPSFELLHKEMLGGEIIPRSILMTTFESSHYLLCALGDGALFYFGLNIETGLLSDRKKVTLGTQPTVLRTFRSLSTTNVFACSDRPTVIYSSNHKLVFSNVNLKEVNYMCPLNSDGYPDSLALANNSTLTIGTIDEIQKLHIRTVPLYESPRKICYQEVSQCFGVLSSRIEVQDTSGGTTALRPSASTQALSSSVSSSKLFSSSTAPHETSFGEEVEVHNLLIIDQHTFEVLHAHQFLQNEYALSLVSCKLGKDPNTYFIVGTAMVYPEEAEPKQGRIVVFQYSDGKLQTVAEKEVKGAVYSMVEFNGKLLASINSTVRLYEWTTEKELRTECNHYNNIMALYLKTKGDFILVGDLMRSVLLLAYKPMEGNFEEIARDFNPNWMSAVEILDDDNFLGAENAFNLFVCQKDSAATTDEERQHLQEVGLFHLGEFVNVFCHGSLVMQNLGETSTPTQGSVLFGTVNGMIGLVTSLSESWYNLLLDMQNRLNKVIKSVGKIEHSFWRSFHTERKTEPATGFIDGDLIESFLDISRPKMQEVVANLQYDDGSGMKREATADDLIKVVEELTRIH
row,Structure (SMILES),IC50 [µM]
1,O=C1CC2(CCN(c3ccc(-c4ccccc4)c(F)c3)CC2)CC(=O)N1 [Compound I-160],> 100
2,Cc1cccc(N2C[C@@H]3C(=O)NC(=O)[C@@H]3C2)c1 [Compound I-161],> 100
3,COC(=O)c1ccc(N2CCC3(CC2)CC(=O)NC(=O)C3)cc1 [Compound I-162],> 100
4,O=C1NC(=O)[C@@H]2CN(C3CCC3)C[C@H]12 [Compound I-163],> 100
5,Cc1cccc(C(=O)N2C[C@@H]3C(=O)NC(=O)[C@@H]3C2)n1 [Compound I-164],> 100
6,COc1cccc(C(=O)N2C[C@@H]3C(=O)NC(=O)[C@@H]3C2)n1 [Compound I-165],> 100
7,O=C1NC(=O)[C@@H]2CN(C(=O)c3cc(C(F)(F)F)ccn3)C[C@H]12 [Compound I-166],> 100
8,O=C1NC(=O)[C@@H]2CN(C(=O)c3ccc4ccccc4n3)C[C@H]12 [Compound I-167],> 100
9,O=C1NC(=O)[C@@H]2CN(C(=O)c3cc4ccccc4cn3)C[C@H]12 [Compound I-168],> 100
10,Nc1cccc(C(=O)N2C[C@@H]3C(=O)NC(=O)[C@@H]3C2)c1 [Compound I-169],> 100
11,NC(=O)c1ccccc1N1C[C@@H]2C(=O)NC(=O)[C@@H]2C1 [Compound I-170],> 100
12,CC(=O)Nc1ccccc1N1C[C@@H]2C(=O)NC(=O)[C@@H]2C1 [Compound I-171],> 100
13,O=CNc1ccccc1N1C[C@@H]2C(=O)NC(=O)[C@@H]2C1 [Compound I-172],> 100
14,Nc1ccc2c(c1)C1(CC(=O)NC1=O)C(=O)N2 (stereo not drawn) [Compound I-173],> 100
15,O=C1CC2(C(=O)N1)C(=O)Nc1ccccc12 (stereo not drawn) [Compound I-174],> 100
16,CNC(=O)c1cccc(N2C[C@@H]3C(=O)NC(=O)[C@@H]3C2)c1 [Compound I-177],> 100
17,CN(C)C(=O)c1cccc(N2C[C@@H]3C(=O)NC(=O)[C@@H]3C2)c1 [Compound I-178],> 100
18,N#Cc1cccc(N2C[C@@H]3C(=O)NC(=O)[C@@H]3C2)c1 [Compound I-179],> 100
19,CS(=O)(=O)c1cccc(N2C[C@@H]3C(=O)NC(=O)[C@@H]3C2)c1 [Compound I-180],> 100

row,Structure (SMILES),IC50 [µM]
1,COCc1cccc(N2C[C@@H]3C(=O)NC(=O)[C@@H]3C2)c1 [Compound I-181],> 100
2,COc1ccccc1C(=O)N1C[C@@H]2C(=O)NC(=O)[C@@H]2C1 [Compound I-182],> 100
3,CN1C(=O)C2(CC(=O)NC2=O)c2cc(N)ccc21 (stereo not drawn) [Compound I-183],> 100
4,CN1C(=O)C2(CC(=O)NC2=O)c2ccccc21 (stereo not drawn) [Compound I-184],> 100
5,Cn1c(=O)[nH]c2cccc(Br)c2c1=O [Compound I-190],> 100
6,Cn1c(=O)c2cc(Br)ccc2n(C)c1=O [Compound I-191],> 100
7,Cn1c(=O)c2c(Br)cccc2n(C)c1=O [Compound I-192],> 100
8,"O=C1CC2(Nc3ccccc3C2=O)C(=O)N1 (stereo not drawn) [Compound I-195, 1H-spiro[indole-2,3′-pyrrolidine]-2′,3,5′-trione]",> 100
9,"O=C1CCc2cccc(Oc3ccccc3)c2C(=O)N1 [Compound I-209, 9-Phenoxy-4,5-dihydro-2H-2-benzazepine-1,3-dione]",> 100
10,CC(C1CC1)N1C[C@@H]2C(=O)NC(=O)[C@@H]2C1 (stereo partly drawn) [Compound I-282],> 100
11,O=C1NC(=O)c2cc(NC(=O)N3CCCCC3)ccc21 [Compound I-283],> 100
12,CC(=O)N1C[C@@H]2C(=O)NC(=O)[C@@H]2C1 [Compound I-284],> 100
13,O=C1NC(=O)[C@@H]2CN(C(=O)c3ccc(Cl)cc3)C[C@H]12 [Compound I-286],> 100
14,O=C1NC(=O)[C@@H]2CN(Cc3cccc(O)c3)C[C@H]12 [Compound I-287],> 100
15,O=C1NC(=O)[C@@H]2CN(Cc3c[nH]c4ccccc34)C[C@H]12 [Compound I-288],> 100
16,O=C1NC(=O)[C@@H]2CN(C3Cc4ccccc4C3)C[C@H]12 [Compound I-289],> 100
17,O=C1NC(=O)[C@@H]2CN(C(=O)c3ccc(O)cc3)C[C@H]12 [Compound I-291],> 100
18,COc1ccc(CN2C[C@@H]3C(=O)NC(=O)[C@@H]3C2)cn1 [Compound I-293],> 100

# Now from value to compound:
row,IC50 [µM],Structure (SMILES)
1,> 100,O=C1NC(=O)[C@@H]2CN(c3cccc4cnccc34)C[C@H]12 [Compound I-141]
2,> 100,O=C1NC(=O)[C@@H]2CN(c3ccc(OC(F)(F)F)cc3)C[C@H]12 [Compound I-142]
3,> 100,O=C(O)c1cccc(N2C[C@@H]3C(=O)NC(=O)[C@@H]3C2)c1 [Compound I-143]
4,> 100,CS(=O)(=O)c1ccc(N2C[C@@H]3C(=O)NC(=O)[C@@H]3C2)cc1 [Compound I-144]
5,> 100,CC(C)(C)OC(=O)NCc1ccc(N2C[C@@H]3C(=O)NC(=O)[C@@H]3C2)cc1 [Compound I-145]
6,> 100,O=C1NC(=O)[C@@H]2CN(c3cccc4cccnc34)C[C@H]12 [Compound I-146]
7,> 100,O=C1NC(=O)[C@@H]2CN(c3ccc(F)cc3Cl)C[C@H]12 [Compound I-147]
8,> 100,N#Cc1ccccc1N1C[C@@H]2C(=O)NC(=O)[C@@H]2C1 [Compound I-148]
9,> 100,O=Cc1ccc(N2C[C@@H]3C(=O)NC(=O)[C@@H]3C2)cc1 [Compound I-149]
10,> 100,Nc1ccc(N2C[C@@H]3C(=O)NC(=O)[C@@H]3C2)cc1 [Compound I-150]
11,> 100,O=C1NC(=O)[C@@H]2CN(c3ccccc3Cl)C[C@H]12 [Compound I-153]
12,> 100,NC(=O)c1ccc(N2C[C@@H]3C(=O)NC(=O)[C@@H]3C2)cc1 [Compound I-154]
13,> 100,COc1ccc2cc(N3C[C@@H]4C(=O)NC(=O)[C@@H]4C3)ccc2c1 [Compound I-155]
14,> 100,O=C1NC(=O)[C@@H]2CN(c3ccc4c(c3)CCO4)C[C@H]12 [Compound I-156]
15,> 100,O=C1NC(=O)[C@@H]2CN(c3ccc4c(c3)OCO4)C[C@H]12 [Compound I-157]
16,> 100,O=C1NC(=O)[C@@H]2CN(c3ccccc3)C[C@H]12 [Compound I-158]
17,< 10,"O=C1Cc2cccc(Oc3ccccc3C(F)(F)F)c2C(=O)N1 [Compound I-210, 8-[2-(Trifluoromethyl)phenoxy]-2,4-dihydroisoquinoline-1,3-dione]"
18,< 10,"CC(C)c1ccccc1Oc1cccc2c1C(=O)NC(=O)C2 [Compound I-211, 8-(2-Isopropylphenoxy)-2,4-dihydroisoquinoline-1,3-dione]"
19,30 to 100,CC(C)(C)OC(=O)NCC#Cc1ccccc1Oc1cccc2c1C(=O)NC(=O)C2 [Compound I-212]
20,< 10,CC(C)(C)OC(=O)NCCCCCC#Cc1ccccc1Oc1cccc2c1C(=O)NC(=O)C2=O [Compound I-242]
21,30 to 100,Cc1ccc(Oc2ccccc2)c2c1CC(=O)NC2=O [Compound I-279]
22,30 to 100,CN(Cc1ccccc1)C(=O)c1cccc2c1C(=O)NC(=O)C2 [Compound I-280]
23,< 10,O=C1Cc2cccc(NCc3ccccc3)c2C(=O)N1 [Compound I-281]

# — patent publication US20220281831A1, “FUSED-GLUTARIMIDE CRBN LIGANDS AND USES THEREOF” (Kymera Therapeutics, Inc., priority 2019, published 2022)
